The source of these data is ChEMBL document CHEMBL3507680, “University of Dundee, Gates Library screen for HepG2 cell viability”.

Each structure is given as a SMILES string.

This data set is described as follows: Human HepG2 cell viability assay in 384 well format. Format: toxicity, cell-based. More on the design: dose 125 nL, time 70.5 hour; concentration not given beside the values. The conditions noted are these: HepG2 cells, read-out: Inhibition.

Regarding `Cc1ccc(NC(=O)c2cc(S(=O)(=O)N3CCCCC3)c[nH]2)cc1F`, the cytotoxicity at 70.5 h is -8.62%.
The same measure for `CCOc1ccc(NC(=O)c2cnc(N3CCCC3)nc2C)cc1`: -15.6%; for `Cc1ccc(C)c(Oc2cc(-n3nc(C)c(C#N)c3N)nc(C)n2)c1`: -6.07%.
The result for `O=C(Cn1nc(Br)nc1Br)N1CCOCC1` reads 27.3%; that for `O=c1[nH]cnc2[nH]c(N3CCOCC3)nc12`, 26.5%.
`COc1ccc(C2SCC(=O)N2c2ncc(C)s2)cc1` (stereo unspecified): the cytotoxicity at 70.5 h was -1.35%.
The result for `Cc1cnc(N2C(=O)CSC2c2cccs2)s1` (stereo unspecified) reads 28.2%; that for `CC(C)Sc1nnc(CCNC(=O)OC(C)(C)C)o1`, 26.1%.
The same measure for `COc1ccc2c(ccn2CCN)c1`: 5.97%.
The same measure for `CC(C)CN1C(=O)c2ccc(C(=O)NCCc3c[nH]cn3)cc2C1=O`: -0.52%; for `Cc1ccc2c(ccn2CCC(=O)NC[C@@H]2CCCN3CCCC[C@H]23)c1`: 1.22%.
On to `COc1ccc(C2CC(=O)Oc3cc(C)[nH]c(=O)c32)cc1` (stereo unspecified), for which the cytotoxicity at 70.5 h is -2.66%.
The result for `COC(=O)CC(c1ccc(OC)c(OC)c1)c1oc(C)cc(=O)c1O` (stereo unspecified) reads 5.4%; that for `O=C(CNC(=O)N1CCc2c([nH]c3ccc(Cl)cc23)C1)N1CCOCC1`, 37.5%; that for `COC(=O)COc1nc(CC(C)C)c2c(c1C#N)CCCC2`, 7.01%.
The result for `O=C(NCCN1CCCCC1)c1nc2ccccc2c(=O)[nH]1` reads 4.35%; that for `O=C(NCCN1CCNCC1)c1nc2ccccc2c(=O)[nH]1`, -2.57%.
As to `NC(=O)c1nc(COc2ccc3c(c2)OCO3)no1`, the cytotoxicity at 70.5 h is -12.9%.
The same measure for `CC(C)[C@H](NC(=O)NC1CCS(=O)(=O)C1)C(=O)NCc1cccnc1` (stereo partly specified): 6.1%; for `O=C(c1nc(COc2ccc3c(c2)OCO3)no1)N1CCCC1`: -3.83%; for `CC(C)[C@H](NC(=O)NC1CCS(=O)(=O)C1)C(=O)NCc1ccccc1Cl` (stereo partly specified): 0.909%.
The result for `O=C(Cn1ccc2c(Cl)cccc21)N[C@@H](C(=O)O)c1ccccc1` reads 0.804%; that for `COc1ccc(NC(=O)Cn2nc(C)ccc2=O)cc1OC`, 0.232%; that for `COCCn1ccc(=O)c(OCC(=O)Nc2ccccc2)c1C`, -10.1%.
The result for `COCCn1ccc(=O)c(OCC(=O)Nc2cccc(C(C)=O)c2)c1C` reads -4.4%; that for `CC1=Nc2c(c(=O)[nH]n2C(C)C)C(c2ccc(F)c(F)c2)S1` (stereo unspecified), -4.57%; that for `CC(C)n1ncc2c1NC(=O)CC21C(=O)Nc2c(Cl)cccc21` (stereo unspecified), -5.46%.
Regarding `O=c1cc2c(nn1CN1CCN(c3ccccc3)CC1)CCC2`, the cytotoxicity at 70.5 h was -4.25%.
The result for `O=c1cc2c(nn1CN1CCOCC1)CCC2` reads -3.75%.
`Cc1cc(C)c2c(c1)C1(CC(=O)Nc3c1cnn3C(C)C)C(=O)N2` (stereo unspecified): the cytotoxicity at 70.5 h is -5.35%.
With `CC(C)CC1SCC(=O)Nc2c1cnn2C(C)C` (stereo unspecified), the cytotoxicity at 70.5 h was -9.09%.
The same measure for `O=C(CCc1nc2cccnc2[nH]1)NCc1cccnc1`: 0.275%.
The same measure for `CC(C)NC(=O)[C@@H](NC(=O)N1CCN(c2ccc(Cl)cc2)CC1)C(C)C`: 6.91%; for `O=C(NCCCO)C1CC(=O)N(c2n[nH]c3cccc(F)c23)C1` (stereo unspecified): 1.35%; for `COc1cc(C2CC(=O)Oc3cc(C)[nH]c(=O)c32)ccc1OC(F)F` (stereo unspecified): 10.5%.
The result for `O=C(NCCN1CCOCC1)c1cc(-c2ccc3c(c2)CCO3)n[nH]1` reads 2%; that for `CC1(C)OCC(CNC(=O)c2cnn(-c3ccc(Cl)cc3)c2N)O1` (stereo unspecified), 7.47%.
Turning to `COc1ccc(-n2ncc(C(=O)NCC3COC(C)(C)O3)c2N)cc1` (stereo unspecified), the cytotoxicity at 70.5 h was -5.98%.
Regarding `CC(=O)N1N=C(c2ccccc2)OC1C(=O)NCCC1=CCCCC1` (stereo unspecified), the cytotoxicity at 70.5 h was -0.565%.
In the case of `COCCNC(=O)c1cn(C(C)(C)C)c2ncccc12`, the cytotoxicity at 70.5 h was -5.71%.
As to `COCC(C)NC(=O)c1cn(C(C)(C)C)c2ncccc12` (stereo unspecified), the cytotoxicity at 70.5 h is -6.59%.
Turning to `COc1ccc(NC(=O)N2CCCC2c2ccco2)cc1OC` (stereo unspecified), the cytotoxicity at 70.5 h is -0.202%.
`Cc1ccc(C)c(C(NC(=O)C2CC2)c2cccnc2)c1` (stereo unspecified): the cytotoxicity at 70.5 h was -1.23%.
The same measure for `COc1ccc(C2=C(C)C(N3CCc4ccccc43)=NS2(=O)=O)cc1`: -12.7%.
Regarding `COc1ccc(C2=C(C)C(N3CCc4ccccc4C3)=NS2(=O)=O)cc1`, the cytotoxicity at 70.5 h amounted to 48.7%.
For the compound `COC(=O)c1ccccc1NC(=O)c1nc2ccccc2n(C)c1=O`, the cytotoxicity at 70.5 h came to 32.8%.
Turning to `Cc1ccc(C2CCCCCN2Cc2cn(C)nc2C)cc1` (stereo unspecified), the cytotoxicity at 70.5 h is -12.1%.
The same measure for `Cc1ccc(C2CCCCCN2Cc2cn(C)nc2C)s1` (stereo unspecified): -19.6%; for `COc1cccc(CN2CCCCCC2c2cccs2)c1O` (stereo unspecified): -6.94%.
`CCOC(=O)CCNC(=O)N1CCN(c2nc3ccccc3n2C)CC1`: the cytotoxicity at 70.5 h was -9.85%.
The same measure for `COc1cc(NC(=O)Cn2ccc3sc(C)cc3c2=O)cc(OC)c1`: -22%.
With `CCS(=O)(=O)N1CCCc2ccc(NC(=O)Cc3ccc(F)cc3)cc21`, the cytotoxicity at 70.5 h amounted to 36.7%.
Consider `CCc1cnc2c(c1NCc1ccncc1)c(=O)n(C)c(=O)n2C`, for which the cytotoxicity at 70.5 h was -8.17%.
In the case of `Cc1cnc2n(c1=O)C(CC(=O)NCc1cc(-c3cccs3)on1)CS2` (stereo unspecified), the cytotoxicity at 70.5 h is 55.7%.
The result for `Cc1sc(NC(=O)CN(C)S(C)(=O)=O)c(C#N)c1C` reads 10%; that for `O=C(CSC1=NS(=O)(=O)c2cc(F)ccc2N1)Nc1cccc(Cl)c1`, -2.86%; that for `O=S1(=O)N=C(SCc2ccc(Cl)cc2)Nc2ccc(F)cc21`, 7.01%.
With `CNC(=O)CSc1cnn(CC(=O)Nc2cccc(Cl)c2C)c(=O)c1Cl`, the cytotoxicity at 70.5 h was -16.3%.
The same measure for `O=C(CCc1ccccc1)NCC1CCN(Cc2ccsc2)CC1`: 5.29%; for `CCCc1nnsc1C(=O)NCC1CCN(S(C)(=O)=O)CC1`: -4%; for `Cc1ccc(N2CCN(C(=O)COc3ccccc3)CC2)nn1`: -1.33%.
For `COc1ccc(F)cc1S(=O)(=O)NCC(c1cccn1C)N(C)C` (stereo unspecified), the cytotoxicity at 70.5 h is -1.76%.
Turning to `Cc1ccnc(OCC(=O)N2CCC(C(N)=O)CC2)n1`, the cytotoxicity at 70.5 h is -4.44%.
The result for `COCC(C)(O)CNC(=O)COc1ccccc1OC` (stereo unspecified) reads -3.09%; that for `O=C(c1ccc(=O)[nH]n1)N1CC(c2nc(Cc3ccccc3)no2)C1`, -0.421%.
With `Cc1ncc(C(=O)N2CCC(C(=O)NC3CCCC3)C2)c(C)n1` (stereo unspecified), the cytotoxicity at 70.5 h is -6.35%.
As for `CC(C)C(=O)N1CCC(c2nc3ccccn3c2NC(C)(C)C)CC1`, the cytotoxicity at 70.5 h was -10.5%.
Take `CC(C)C(=O)N(C)Cc1nc(N2CCCC2)ncc1-c1ccncc1`: the cytotoxicity at 70.5 h was -6.45%.
The same measure for `O=C(CN1CCN(CC(O)C2CC2)CC1)NCc1ccc(F)cc1` (stereo unspecified): -0.525%.
The result for `COC(=O)CN1CC(c2nc(Cc3ccccc3)no2)C1` reads -6.57%.
Take `CCC(CN1CCCCC1)NC(=O)C1(c2ccc(F)cc2)CC1` (stereo unspecified): the cytotoxicity at 70.5 h was -7.64%.
